According to US9023789B2, “Amylin analogs and pharmaceutical compositions thereof” (Novo Nordisk A/S, priority 2012, dated 2015):
Numbered stars: 1 amine (or outer) side, 2 acyl side, 3 side chain; on linkers, the order of the positions; unused ones are H or OH. Bridge positions count the residues as written; N and C are the ends. Side chains are listed from the residue outwards. Peptide text beside a SMILES is read from it. * marks the point of attachment. C20 diacid = O=C(O)CCCCCCCCCCCCCCCCCCC(=O)*; γGlu = O=C(O)[C@H](CCC(=O)[*:2])N[*:1]; AEEA = NCCOCCOCC(=O)O

Tests used:
[1] = ASSAY (III) ThT fibrillation assay for physical stability; format: physicochemical
How it was run: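 Physical stability scored by ThT fluorescence (444 nm excitation, 485 nm emission) tracked every 20 min during 37 °C incubation with 960 rpm shaking, ThT at 1 μM final. Values are replicate means with SD at chosen times; HPLC against pramlintide standard gives initial and post-assay soluble concentrations.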

[2] = target: T1, rat amylin receptor (rat calcitonin receptor + rat RAMP 3) (Rattus norvegicus, UniProt P32214+Q9JJ73); experiment: ASSAY (VI) binding to the rat amylin receptor; conditions: for IC50: binding to rat amylin receptor, read-out: rAmylin-R bind IC50
T1 construct: expressed in transfected cells; host or cells: BHK tk'ts 13 (transient, FuGENE 6), membranes
T1 sequence (P32214 25-479 isoform P32214-2 limits assumed): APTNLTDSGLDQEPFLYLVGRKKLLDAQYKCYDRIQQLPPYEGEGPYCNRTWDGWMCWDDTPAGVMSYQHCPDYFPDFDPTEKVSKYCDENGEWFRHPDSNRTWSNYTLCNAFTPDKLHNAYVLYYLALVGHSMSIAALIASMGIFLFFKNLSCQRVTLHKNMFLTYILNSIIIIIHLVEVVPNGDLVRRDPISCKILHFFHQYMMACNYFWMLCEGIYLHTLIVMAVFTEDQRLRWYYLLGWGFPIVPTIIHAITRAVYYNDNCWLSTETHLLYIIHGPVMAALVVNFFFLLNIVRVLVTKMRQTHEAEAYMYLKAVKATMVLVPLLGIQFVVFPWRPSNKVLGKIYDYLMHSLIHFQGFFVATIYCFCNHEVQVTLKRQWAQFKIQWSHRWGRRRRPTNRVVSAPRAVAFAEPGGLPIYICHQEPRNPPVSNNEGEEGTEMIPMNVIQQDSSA
T1 sequence (Q9JJ73 23-147 partner): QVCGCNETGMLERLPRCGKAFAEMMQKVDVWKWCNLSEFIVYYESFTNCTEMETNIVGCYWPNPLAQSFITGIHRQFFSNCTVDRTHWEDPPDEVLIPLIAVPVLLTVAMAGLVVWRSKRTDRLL
How it was run: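 Membranes for this rat amylin receptor binding assay came from BHK tk′ts 13 cells. The cells were transiently transfected with rat calcitonin receptor using the FuGENE® 6 reagent from Roche, as the manufacturer recommends. The cells were collected approximately 48 hours after transfection, and membranes were then prepared.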

[3] = target: T2, rat calcitonin receptor (Rattus norvegicus, UniProt P32214); experiment: ASSAY (VIII) binding to the rat calcitonin receptor; conditions: Table 7, read-out: rCTR bind IC50
T2 construct: expressed in transfected cells; host or cells: BHK tk'ts 13 (transient, FuGENE 6), membranes
T2 sequence (P32214 25-479 isoform P32214-2 limits assumed): T1 sequence (P32214 25-479 isoform P32214-2 limits assumed)
How it was run: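 BHK tk′ts 13 cells, transient rat calcitonin receptor transfection; DMEM + 10% FBS; harvest ~48 h post-transfection; membrane prep.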

[4] = Table 7, rat binding selectivity, rCTR IC50 / rAmylin-R IC50
[5] = Table 7a (preferred compounds), rat binding selectivity, rCTR IC50 / rAmylin-R IC50
[6] = ratio of rCTR bind IC50 to rAmylin-R bind IC50

| Compound | ThT pH 4.0 lag time (h) [1] [h] | IC50 ([2]; Table 7) [nM] | Ratio rCT/rAmylin binding [2, 4] | Ratio rCT/rAmylin binding [2, 5] | Ratio rCT/rAmylin binding [2, 6] | IC50 [3] [nM] |
| --- | --- | --- | --- | --- | --- | --- |
| CC[C@H](C)[C@H](NC(=O)[C@H](C)NC(=O)CNC(=O)[C@H](Cc1ccccc1)NC(=O)[C@H](CC(N)=O)NC(=O)[C@@H]1CCCN1C(=O)[C@H](CO)NC(=O)[C@H](CO)NC(=O)[C@H](Cc1c[nH]cn1)NC(=O)[C@H](CCCNC(=N)N)NC(=O)[C@H](CC(C)C)NC(=O)[C@H](Cc1ccccc1)NC(=O)[C@H](CC(N)=O)NC(=O)[C@H](C)NC(=O)[C@H](CC(C)C)NC(=O)[C@H](CCCNC(=N)N)NC(=O)[C@H](CCC(N)=O)NC(=O)[C@@H](NC(=O)[C@H](C)NC(=O)[C@@H]1CSSC[C@H](NC(=O)[C@@H](N)CCCCNC(=O)COCCOCCNC(=O)CC[C@H](NC(=O)CCCCCCCCCCCCCCCCCCC(=O)O)C(=O)O)C(=O)N[C@@H](CC(N)=O)C(=O)N[C@@H]([C@@H](C)O)C(=O)N[C@@H](C)C(=O)N[C@@H]([C@@H](C)O)C(=O)N1)[C@@H](C)O)C(=O)N1CCC[C@H]1C(=O)N[C@@H](CO)C(=O)N1CCC[C@H]1C(=O)N[C@H](C(=O)N[C@@H](CC(N)=O)C(=O)N[C@H](C(=O)NCC(=O)N1CCC[C@H]1C(=O)N[C@@H](CC(N)=O)C(=O)N[C@H](C(=O)N[C@@H](Cc1ccc(O)cc1)C(N)=O)[C@@H](C)O)C(C)C)[C@@H](C)O [Example 56] (H-K([AEEA-γGlu-C20 diacid])CNTATCATQRLANFLRHSSPNFGAIPSPTNVGPNTY-NH2; disulfide 2-7 (inferred); N-terminus assumed) | 22 | 0.04 | 131.4 | 131.4 | 131.4 | 5.26 |
| CC[C@H](C)[C@H](NC(=O)[C@H](C)NC(=O)CNC(=O)[C@H](Cc1ccccc1)NC(=O)[C@H](CC(N)=O)NC(=O)[C@@H]1CCCN1C(=O)[C@H](CO)NC(=O)[C@H](CO)NC(=O)[C@H](Cc1c[nH]cn1)NC(=O)[C@H](CCCNC(=N)N)NC(=O)[C@H](CC(C)C)NC(=O)[C@H](Cc1ccccc1)NC(=O)CNC(=O)[C@H](C)NC(=O)[C@H](CC(C)C)NC(=O)[C@H](CCCNC(=N)N)NC(=O)[C@H](CCC(N)=O)NC(=O)[C@@H](NC(=O)[C@H](C)NC(=O)[C@@H]1CSSC[C@H](NC(=O)[C@@H](N)CCCCNC(=O)COCCOCCNC(=O)CC[C@H](NC(=O)CCCCCCCCCCCCCCCCCCC(=O)O)C(=O)O)C(=O)N[C@@H](CC(N)=O)C(=O)N[C@@H]([C@@H](C)O)C(=O)N[C@@H](C)C(=O)N[C@@H]([C@@H](C)O)C(=O)N1)[C@@H](C)O)C(=O)N1CCC[C@H]1C(=O)N[C@@H](CO)C(=O)N[C@@H](CO)C(=O)N[C@H](C(=O)N1CCC[C@H]1C(=O)N[C@H](C(=O)NCC(=O)N[C@@H](CO)C(=O)N[C@@H](CC(N)=O)C(=O)N[C@H](C(=O)N[C@@H](Cc1ccc(O)cc1)C(N)=O)[C@@H](C)O)C(C)C)[C@@H](C)O [Example 71] (H-K([AEEA-γGlu-C20 diacid])CNTATCATQRLAGFLRHSSPNFGAIPSSTPVGSNTY-NH2; disulfide 2-7) | 11 | 0.276 | 162.4 | 162.4 | 162.4 | 44.8 |
| CC[C@H](C)[C@H](NC(=O)[C@H](C)NC(=O)CNC(=O)[C@H](Cc1ccccc1)NC(=O)[C@H](CC(N)=O)NC(=O)[C@@H]1CCCN1C(=O)[C@H](CO)NC(=O)[C@H](CO)NC(=O)[C@H](Cc1c[nH]cn1)NC(=O)[C@H](CCCNC(=N)N)NC(=O)[C@H](CC(C)C)NC(=O)[C@H](Cc1ccccc1)NC(=O)[C@H](CCC(=O)O)NC(=O)[C@H](C)NC(=O)[C@H](CC(C)C)NC(=O)[C@H](CCCNC(=N)N)NC(=O)[C@H](CCC(N)=O)NC(=O)[C@@H](NC(=O)[C@H](C)NC(=O)[C@@H]1CSSC[C@H](NC(=O)[C@H](CCCCN)NC(=O)CC[C@H](NC(=O)CCCCCCCCCCCCCCCCCCC(=O)O)C(=O)O)C(=O)N[C@@H](CC(N)=O)C(=O)N[C@@H]([C@@H](C)O)C(=O)N[C@@H](C)C(=O)N[C@@H]([C@@H](C)O)C(=O)N1)[C@@H](C)O)C(=O)N1CCC[C@H]1C(=O)N[C@@H](CO)C(=O)N[C@@H](CO)C(=O)N[C@H](C(=O)N[C@@H](CC(N)=O)C(=O)N[C@H](C(=O)NCC(=O)N[C@@H](CCCCN)C(=O)N[C@@H](CC(N)=O)C(=O)N[C@H](C(=O)N[C@@H](Cc1ccc(O)cc1)C(N)=O)[C@@H](C)O)C(C)C)[C@@H](C)O [Example 36] ({C20 diacid-γGlu}-KCNTATCATQRLAEFLRHSSPNFGAIPSSTNVGKNTY-NH2; disulfide 2-7 (inferred)) | 45 | 1.86 | 32.4 | 32.4 | 32.4 | 60.1 |
| CC[C@H](C)[C@H](NC(=O)[C@H](C)NC(=O)CNC(=O)[C@H](Cc1ccccc1)NC(=O)[C@H](CC(N)=O)NC(=O)[C@@H]1CCCN1C(=O)[C@H](CO)NC(=O)[C@H](CO)NC(=O)[C@H](Cc1c[nH]cn1)NC(=O)[C@H](CCCNC(=N)N)NC(=O)[C@H](CC(C)C)NC(=O)[C@H](Cc1ccccc1)NC(=O)[C@H](CCC(=O)O)NC(=O)[C@H](C)NC(=O)[C@H](CC(C)C)NC(=O)[C@H](CCCNC(=N)N)NC(=O)[C@H](CCC(N)=O)NC(=O)[C@@H](NC(=O)[C@H](C)NC(=O)[C@@H]1CSSC[C@H](NC(=O)[C@H](CCCCN)NC(=O)CC[C@H](NC(=O)CCCCCCCCCCCCCCCCCCC(=O)O)C(=O)O)C(=O)N[C@@H](CC(N)=O)C(=O)N[C@@H]([C@@H](C)O)C(=O)N[C@@H](C)C(=O)N[C@@H]([C@@H](C)O)C(=O)N1)[C@@H](C)O)C(=O)N1CCC[C@H]1C(=O)N[C@@H](CO)C(=O)N[C@@H](CO)C(=O)N[C@H](C(=O)N1CCC[C@H]1C(=O)N[C@H](C(=O)NCC(=O)N[C@@H](CO)C(=O)N[C@@H](CC(N)=O)C(=O)N[C@H](C(=O)N[C@@H](Cc1ccc(O)cc1)C(N)=O)[C@@H](C)O)C(C)C)[C@@H](C)O [Example 31] ({C20 diacid-γGlu}-KCNTATCATQRLAEFLRHSSPNFGAIPSSTPVGSNTY-NH2; disulfide 2-7 (inferred)) | 45 | 0.619 | 42.8 | 42.8 | 42.8 | 26.5 |
| CC[C@H](C)[C@H](NC(=O)[C@H](C)NC(=O)CNC(=O)[C@@H]1CCCN1C(=O)[C@H](CC(N)=O)NC(=O)[C@H](CC(N)=O)NC(=O)[C@H](CO)NC(=O)[C@H](CO)NC(=O)[C@H](Cc1c[nH]cn1)NC(=O)[C@H](CCCNC(=N)N)NC(=O)[C@H](CC(C)C)NC(=O)[C@H](Cc1ccccc1)NC(=O)[C@H](CCC(=O)O)NC(=O)[C@H](C)NC(=O)[C@H](CC(C)C)NC(=O)[C@H](CCCNC(=N)N)NC(=O)[C@H](CCC(N)=O)NC(=O)[C@@H](NC(=O)[C@H](C)NC(=O)[C@@H]1CSSC[C@H](NC(=O)[C@@H](N)CCCCNC(=O)CC[C@H](NC(=O)CC[C@H](NC(=O)CCCCCCCCCCCCCCCCCCC(=O)O)C(=O)O)C(=O)O)C(=O)N[C@@H](CC(N)=O)C(=O)N[C@@H]([C@@H](C)O)C(=O)N[C@@H](C)C(=O)N[C@@H]([C@@H](C)O)C(=O)N1)[C@@H](C)O)C(=O)N[C@@H](CC(C)C)C(=O)N[C@@H](CO)C(=O)N[C@@H](CO)C(=O)N[C@H](C(=O)N[C@@H](CC(N)=O)C(=O)N[C@H](C(=O)NCC(=O)N1CCC[C@H]1C(=O)N[C@@H](CCC(=O)O)C(=O)N[C@H](C(=O)N[C@@H](Cc1ccc(O)cc1)C(N)=O)[C@@H](C)O)C(C)C)[C@@H](C)O [Example 126] (H-K([γGlu-γGlu-C20 diacid])CNTATCATQRLAEFLRHSSNNPGAILSSTNVGPETY-NH2; disulfide 2-7 (inferred); N-terminus assumed) | 0 | 0.659 | 131.7 | 131.7 |  | 86.8 |
